Data reported in patent publication US7205327B2, “Imidazole and benzimidazole caspase inhibitors and uses thereof” (Vertex Pharmaceuticals Incorporated, priority 2000, dated 2007).
Counter-ions that a name gives are not always drawn.

Each compound was assayed on FAS induced apoptosis (assay: Anti-fas induced apoptosis assay).
Type: cell-based
From the text: Anti-fas Induced Apoptosis Assay
Cellular apoptosis may be induced by the binding of Fas ligand (FasL) to its receptor, CD95 (Fas). Conditions for an assay to measure the effect of compounds on the inhibition of the caspase-8-mediated apoptotic pathway may be found in WO0142216.

SMILES	IC50
CC[C@H](NC(=O)c1ncc[nH]1)C(=O)NC(CC(=O)O)C(=O)CF (stereo partly drawn) [Compound 3, [3S/R,(2S)]-5-Fluoro-3-{2-[(1H-imidazole-2-carbonyl)-amino]-butyrylamino}-4-oxo-pentanoic acid, trifluoroacetate salt]	< 200 nM
CC(C)[C@H](NC(=O)c1nc2ccccc2[nH]1)C(=O)NC(CC(=O)O)C(=O)CF (stereo partly drawn) [Compound 5, [3S/R, (2S)]-3-{2-[(1H-Benzoimidazole-2-carbonyl)-amino]-3-methylbutyrylamino}-5-fluoro-4-oxo-pentanoic acid]	< 200 nM
CC(C)[C@H](NC(=O)c1ncc[nH]1)C(=O)NC(CC(=O)O)C(=O)CF (stereo partly drawn) [Compound 4, [3S/R,(2S)]-5-Fluoro-3-{2-[(1H-imidazole-2-carbonyl)-amino]-3-methylbutyrylamino}-4-oxo-pentanoic acid]	< 200 nM
C[C@H](NC(=O)c1nc2ccccc2[nH]1)C(=O)NC(CC(=O)O)C(=O)CF (stereo partly drawn) [Compound 2, [3S/R, (2S)]-3-{2-[(1H-Benzoimidazole-2-carbonyl)-amino]-propionylamino}-5-fluoro-4-oxo-pentanoic acid, trifluoroacetate salt]	< 200 nM
C[C@H](NC(=O)c1ncc[nH]1)C(=O)NC(CC(=O)O)C(=O)CF (stereo partly drawn) [Compound 1, [3S/R,(2S)]-5-Fluoro-3-{2-[(1H-imidazole-2-carbonyl)-amino]-propionylamino}-4-oxo-pentanoic acid, trifluoroacetate salt]	< 200 nM
